For orientation: IC50 means the concentration that inhibits the measured activity by half. A low value points to greater potency in that assay.

The target of this test is PRMT5-MEP50 enzyme complex (Homo sapiens (Human), UniProt O14744). Briefly: PRMT5 enzyme activity in vitro assay (methylation of histone H4R3, ELISA absorbance at 450 nm). Format: biochemical. The conditions noted are these: SAM, histone H4 peptide, room temperature 2 hours, 8 points from 10 μM to 0.128 nM. How it is done: Method for Measuring Enzyme Activity
Sequence of PRMT5-MEP50 enzyme complex (O14744 2-637): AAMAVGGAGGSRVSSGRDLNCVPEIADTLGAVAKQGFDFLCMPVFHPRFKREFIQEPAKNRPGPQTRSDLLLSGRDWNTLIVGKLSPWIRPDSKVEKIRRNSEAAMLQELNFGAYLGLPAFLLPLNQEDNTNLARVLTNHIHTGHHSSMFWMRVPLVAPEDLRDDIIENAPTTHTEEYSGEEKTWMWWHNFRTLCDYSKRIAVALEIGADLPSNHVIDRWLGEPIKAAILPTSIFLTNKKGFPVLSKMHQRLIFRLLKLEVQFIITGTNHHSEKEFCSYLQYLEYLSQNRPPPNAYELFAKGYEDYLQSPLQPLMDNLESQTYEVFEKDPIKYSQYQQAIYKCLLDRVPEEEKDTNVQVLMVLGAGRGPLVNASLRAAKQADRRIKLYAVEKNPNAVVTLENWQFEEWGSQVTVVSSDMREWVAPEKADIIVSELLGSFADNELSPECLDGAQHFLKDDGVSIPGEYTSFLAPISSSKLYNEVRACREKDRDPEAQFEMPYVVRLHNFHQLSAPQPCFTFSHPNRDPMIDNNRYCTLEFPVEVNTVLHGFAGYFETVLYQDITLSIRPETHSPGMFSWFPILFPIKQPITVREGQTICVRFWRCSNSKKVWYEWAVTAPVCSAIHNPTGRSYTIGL
Sequence of PRMT5-MEP50 enzyme complex (Q9BQA1 2-342 partner): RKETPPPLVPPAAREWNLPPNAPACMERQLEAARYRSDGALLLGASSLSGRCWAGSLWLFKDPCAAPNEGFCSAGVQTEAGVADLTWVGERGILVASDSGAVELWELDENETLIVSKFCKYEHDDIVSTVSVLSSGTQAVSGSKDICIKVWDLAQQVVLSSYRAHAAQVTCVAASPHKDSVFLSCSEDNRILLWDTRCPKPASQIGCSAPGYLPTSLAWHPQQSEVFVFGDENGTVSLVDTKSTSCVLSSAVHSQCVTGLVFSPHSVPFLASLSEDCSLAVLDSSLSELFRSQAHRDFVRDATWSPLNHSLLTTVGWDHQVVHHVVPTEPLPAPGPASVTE
In vitro assay: PRMT5-MEP50 enzyme complex, cofactor S-adenosylmethionine (SAM) and histone H4 peptide were reacted in vitro, and methylation of arginine (H4R3)—which is the third amino acid of histone H4—was measured in order to measure the enzyme activity of PRMT5.
Reagents: PRMT5-MEP50 enzyme complex (Catalog No. 51045), blocking buffer (52100-B), histone methyltransferase reaction buffer 2 (4×HMT assay buffer 2, Catalog No. 52170), and primary antibody (primary antibody 4-3, Catalog No. 52150) were purchased from BPS Bioscience (USA). The histone H4 peptide (1-20 amino acids) was custom made by Komabiotech (Korea) and used. S-adenosylmethionine was purchased from NEB (New England Biolabs, USA, Catalog No. B9003S). Plates for coating histone H4 peptide, washing buffer and color development reagent were purchased from the following vendors: Plate (Immobilizer™-Amino Plate, NUNC, Denmark, Catalog No. 436023), carbonate-bicarbonate buffer (Sigma-Aldrich, USA, Catalog No. C3041), washing buffer (10×TBST, Biosesang, Korea, Catalog No. T2005), TMB ELISA substrate (Abcam, UK, Catalog No. ab210902), horseradish peroxidase (HRP)-conjugated antibody (Abcam, UK, Catalog No. ab6721).
Experimental procedure: The histone H4 peptide was diluted with carbonate-bicarbonate buffer and prepared to 100 μg/mL, and then dispensed onto the plate per 100 μL and reacted at 37° C. for 1 hour. PRMT5-MEP50 enzyme complex and S-adenosylmethionine were diluted with histone methyltransferase reaction buffer to prepare 5 μg/mL and 2 μM, respectively, and then 20 μL of PRMT5-MEP50 enzyme complex and 25 μL of S-adenosylmethionine were dispensed onto the plate prepared above. 5 μL of the compound diluted with 10% dimethyl sulfoxide solution was added thereto and reacted at room temperature for 2 hours (final volume=50 μL). The concentration of the compound was diluted 1:5 from 10 μM until the lowest concentration of 0.128 nM, and 8 points were used for the test. After preparing the primary antibody by diluting 1:2000 with blocking buffer, 100 μL was added to the plate and reacted at room temperature for 1 hour. After preparing horseradish peroxidase-conjugated antibody by diluting 1:10,000 with blocking buffer, 100 μL was added to the plate and reacted at room temperature for 1 hour. 100 μL of TMB substrate was added and reacted for 3 minutes at room temperature, and 100 μL of 1 N sulfuric acid was then added to terminate the reaction. Then, the absorbance at 450 nm was measured to calculate the IC50 value of the compound. (+++: 1 to 100 nM, ++: greater than 100 to 1,000 nM, +: greater than 1,000 to 10,000 nM)
In general terms: ELISA stands for enzyme-linked immunosorbent assay.
The molecule `CC(=O)N1CCC(c2ccc3c(c2)OCCN(C[C@H](O)CN2CCc4ccccc4C2)C3=O)CC1` [Example 17, 8-(1-acetyl-4-piperidyl)-4-[(2R)-3-(3,4-dihydro-1H-isoquinolin-2-yl)-2-hydroxy-propyl]-2,3-dihydro-1,4-benzoxazepin-5-one] displayed an IC50 of 1 to 100 nM.
As to `CCN1CC=C(c2ccc3c(c2)OCCN(C[C@H](O)CN2CCc4ccccc4C2)C3=O)CC1` [Example 18, 4-[(2R)-3-(3,4-dihydro-1H-isoquinolin-2-yl)-2-hydroxy-propyl]-8-(1-ethyl-3,6-dihydro-2H-pyridin-4-yl)-2,3-dihydro-1,4-benzoxazepin-5-one], the IC50 was 100 to 1000 nM.
Consider `CC(C)N1CC=C(c2ccc3c(c2)OCCN(C[C@H](O)CN2CCc4ccccc4C2)C3=O)CC1` [Example 19, 4-[(2R)-3-(3,4-dihydro-1H-isoquinolin-2-yl)-2-hydroxy-propyl]-8-(1-isopropyl-3,6-dihydro-2H-pyridin-4-yl)-2,3-dihydro-1,4-benzoxazepin-5-one], for which the IC50 was in the range of 100 to 1000 nM.
In the case of `O=C1c2ccc(C3=CCOCC3)cc2OCCN1C[C@H](O)CN1CCc2ccccc2C1` [Example 20, 4-[(2R)-3-(3,4-dihydro-1H-isoquinolin-2-yl)-2-hydroxy-propyl]-8-(3,6-dihydro-2H-pyran-4-yl)-2,3-dihydro-1,4-benzoxazepin-5-one], the IC50 was 100 to 1000 nM.
In turn, `O=C1c2ccc(C3CCOCC3)cc2OCCN1C[C@H](O)CN1CCc2ccccc2C1` [Example 21, 4-[(2R)-3-(3,4-dihydro-1H-isoquinolin-2-yl)-2-hydroxy-propyl]-8-tetrahydropyran-4-yl-2,3-dihydro-1,4-benzoxazepin-5-one] showed an IC50 of 100 to 1000 nM.
On to `O=C1c2ccc(CN3CCCCC3)cc2OCCN1C[C@H](O)CN1CCc2ccccc2C1` [Example 23, 4-[(2R)-3-(3,4-dihydro-1H-isoquinolin-2-yl)-2-hydroxy-propyl]-8-(1-piperidylmethyl)-2,3-dihydro-1,4-benzoxazepin-5-one], for which the IC50 is 1 to 100 nM.
In turn, `O=C1c2ccc(CN3CCCC3)cc2OCCN1C[C@H](O)CN1CCc2ccccc2C1` [Example 24, 4-[(2R)-3-(3,4-dihydro-1H-isoquinolin-2-yl)-2-hydroxy-propyl]-8-(pyrrolidin-1-ylmethyl)-2,3-dihydro-1,4-benzoxazepin-5-one] displayed an IC50 of 1 to 100 nM.
Molecule `CN(C)Cc1ccc2c(c1)OCCN(C[C@H](O)CN1CCc3ccccc3C1)C2=O` [Example 25, 4-[(2R)-3-(3,4-dihydro-1H-isoquinolin-2-yl)-2-hydroxy-propyl]-8-[(dimethylamino)methyl]-2,3-dihydro-1,4-benzoxazepin-5-one] had an IC50 of 100 to 1000 nM.
`CCN(CC)Cc1ccc2c(c1)OCCN(C[C@H](O)CN1CCc3ccccc3C1)C2=O` [Example 26, 8-(diethylaminomethyl)-4-[(2R)-3-(3,4-dihydro-1H-isoquinolin-2-yl)-2-hydroxy-propyl]-2,3-dihydro-1,4-benzoxazepin-5-one] returned an IC50 of 100 to 1000 nM.
Regarding `CC1CCN(Cc2ccc3c(c2)OCCN(C[C@H](O)CN2CCc4ccccc4C2)C3=O)CC1` [Example 27, 4-[(2R)-3-(3,4-dihydro-1H-isoquinolin-2-yl)-2-hydroxy-propyl]-8-[(4-methyl-1-piperidyl)methyl]-2,3-dihydro-1,4-benzoxazepin-5-one], the IC50 is 1 to 100 nM.
Consider `O=C1c2ccc(CN3CC4(COC4)C3)cc2OCCN1C[C@H](O)CN1CCc2ccccc2C1` [Example 28, 4-[(2R)-3-(3,4-dihydro-1H-isoquinolin-2-yl)-2-hydroxy-propyl]-8-(2-oxa-6-azaspiro[3.3]heptan-6-ylmethyl)-2,3-dihydro-1,4-benzoxazepin-5-one], for which the half-inhibitory concentration (IC50) was in the range of 1 to 100 nM.
`COC1CN(Cc2ccc3c(c2)OCCN(C[C@H](O)CN2CCc4ccccc4C2)C3=O)C1` [Example 29, 4-[(2R)-3-(3,4-dihydro-1H-isoquinolin-2-yl)-2-hydroxy-propyl]-8-[(3-methoxyazetidin-1-yl)methyl]-2,3-dihydro-1,4-benzoxazepin-5-one]: the IC50 fell in the range of 100 to 1000 nM.
As to `CC1CN(Cc2ccc3c(c2)OCCN(C[C@H](O)CN2CCc4ccccc4C2)C3=O)CCO1` (stereo partly drawn) [Example 30, 4-[(2R)-3-(3,4-dihydro-1H-isoquinolin-2-yl)-2-hydroxy-propyl]-8-[(2-methylmorpholin-4-yl)methyl]-2,3-dihydro-1,4-benzoxazepin-5-one], the IC50 was 1 to 100 nM.
The molecule `O=C1c2ccc(CN3CCC(F)(F)CC3)cc2OCCN1C[C@H](O)CN1CCc2ccccc2C1` [Example 31, 8-[(4,4-difluoro-1-piperidyl)methyl]-4-[(2R)-3-(3,4-dihydro-1H-isoquinolin-2-yl)-2-hydroxy-propyl]-2,3-dihydro-1,4-benzoxazepin-5-one] returned an IC50 of 1 to 100 nM.
In the case of `O=C1c2ccc(CN3CCC(F)CC3)cc2OCCN1C[C@H](O)CN1CCc2ccccc2C1` [Example 32, 4-[(2R)-3-(3,4-dihydro-1H-isoquinolin-2-yl)-2-hydroxy-propyl]-8-[(4-fluoro-1-piperidyl)methyl]-2,3-dihydro-1,4-benzoxazepin-5-one], the IC50 lay in the range of 1 to 100 nM.
In turn, `CC1CC(C)CN(Cc2ccc3c(c2)OCCN(C[C@H](O)CN2CCc4ccccc4C2)C3=O)C1` (stereo partly drawn) [Example 33, 4-[(2R)-3-(3,4-dihydro-1H-isoquinolin-2-yl)-2-hydroxy-propyl]-8-[(3,5-dimethyl-1-piperidyl)methyl]-2,3-dihydro-1,4-benzoxazepin-5-one] displayed an IC50 of 100 to 1000 nM.
As for `O=C1c2ccc(CN3CC4CCCC4C3)cc2OCCN1C[C@H](O)CN1CCc2ccccc2C1` (stereo partly drawn) [Example 34, 8-(3,3a,4,5,6,6a-hexahydro-1H-cyclopenta[c]pyrrol-2-ylmethyl)-4-[(2R)-3-(3,4-dihydro-1H-isoquinolin-2-yl)-2-hydroxy-propyl]-2,3-dihydro-1,4-benzoxazepin-5-one], the figure is 1 to 100 nM; as for `O=C1c2ccc(CN3CCC(O)C3)cc2OCCN1C[C@H](O)CN1CCc2ccccc2C1` (stereo partly drawn) [Example 35, 4-[(2R)-3-(3,4-dihydro-1H-isoquinolin-2-yl)-2-hydroxy-propyl]-8-[(3-hydroxypyrrolidin-1-yl)methyl]-2,3-dihydro-1,4-benzoxazepin-5-one], 100 to 1000 nM; as for `C[C@@H]1CCCN1Cc1ccc2c(c1)OCCN(C[C@H](O)CN1CCc3ccccc3C1)C2=O` [Example 36, 4-[(2R)-3-(3,4-dihydro-1H-isoquinolin-2-yl)-2-hydroxy-propyl]-8-[[(2R)-2-methylpyrrolidin-1-yl]methyl]-2,3-dihydro-1,4-benzoxazepin-5-one], 100 to 1000 nM.
The molecule `O=C1c2ccc(CN3CCCC(CO)C3)cc2OCCN1C[C@H](O)CN1CCc2ccccc2C1` (stereo partly drawn) [Example 37, 4-[(2R)-3-(3,4-dihydro-1H-isoquinolin-2-yl)-2-hydroxy-propyl]-8-[[3-(hydroxymethyl)-1-piperidyl]methyl]-2,3-dihydro-1,4-benzoxazepin-5-one] returned an IC50 of 1000 to 10000 nM.
To `COC1CCN(Cc2ccc3c(c2)OCCN(C[C@H](O)CN2CCc4ccccc4C2)C3=O)CC1` [Example 38, 4-[(2R)-3-(3,4-dihydro-1H-isoquinolin-2-yl)-2-hydroxy-propyl]-8-[(4-methoxy-1-piperidyl)methyl]-2,3-dihydro-1,4-benzoxazepin-5-one] belongs 100 to 1000 nM; to `O=C1c2ccc(CN3CCCOCC3)cc2OCCN1C[C@H](O)CN1CCc2ccccc2C1` [Example 39, 4-[(2R)-3-(3,4-dihydro-1H-isoquinolin-2-yl)-2-hydroxy-propyl]-8-(1,4-oxazepan-4-ylmethyl)-2,3-dihydro-1,4-benzoxazepin-5-one], 100 to 1000 nM; to `CC1(O)CCN(Cc2ccc3c(c2)OCCN(C[C@H](O)CN2CCc4ccccc4C2)C3=O)C1` (stereo partly drawn) [Example 40, 4-[(2R)-3-(3,4-dihydro-1H-isoquinolin-2-yl)-2-hydroxy-propyl]-8-[(3-hydroxy-3-methyl-pyrrolidin-1-yl)methyl]-2,3-dihydro-1,4-benzoxazepin-5-one], 1 to 100 nM.
Molecule `O=C1c2ccc(CN3CCCCC3CO)cc2OCCN1C[C@H](O)CN1CCc2ccccc2C1` (stereo partly drawn) [Example 41, 4-[(2R)-3-(3,4-dihydro-1H-isoquinolin-2-yl)-2-hydroxy-propyl]-8-[[2-(hydroxymethyl)-1-piperidyl]methyl]-2,3-dihydro-1,4-benzoxazepin-5-one] had an IC50 of 100 to 1000 nM.
